In patent US20130303507A1 (Novartis AG, priority 2011, published 2013):

What was measured:
neointima formation = conditions: in rats; cited from earlier work
Cdk9/cyclinT1 = Cdk9/cyclinT1 (Homo sapiens, UniProt P50750); test: Cdk9/cyclinT1 Alpha Screen protocol; assay type: biochemical; design: Full length wild type Cdk9/cyclin T1 is purchased from Invitrogen; purchased Invitrogen PV4131; conditions: neutral species; individual determinations; read-out: CDK9_cyclinT1_AS2_IC50
Description: Cdk9/cyclinT1 Alpha Screen Protocol
Full length wild type Cdk9/cyclin T1 is purchased from Invitrogen, cat#PV4131. […] The cdk7tide peptide substrate, biotin-[…] -OH, is a custom synthesis purchased from the Tufts University Core Facility. The final concentration of cdk7tide peptide substrate is 200 nM. […] Phospho-Rpb1 CTD (ser2/5) substrate antibody is purchased from Cell Signaling Technology. The final concentration of antibody is 0.67 ug/ml. The Alpha Screen Protein A detection kit containing donor and acceptor beads is purchased from PerkinElmer Life Sciences. The final concentration of both donor and acceptor beads is 15 ug/ml. Alpha Screen is used for detection. […] The biotinylated-cdk7tide peptide substrate is bound to the streptavidin coated donor bead. The antibody is bound to the protein A coated acceptor bead. The antibody will bind to the phosphorylated form of the biotinylated-cdk7tide peptide substrate, bringing the donor and acceptor beads into close proximity. Laser irradiation of the donor bead at 680 nm generates a flow of short-lived singlet oxygen molecules. When the donor and acceptor beads are in close proximity, the reactive oxygen generated by the irradiation of the donor beads initiates a luminescence/fluorescence cascade in the acceptor beads. This process leads to a highly amplified signal with output in the 530-620 nm range. Assays are carried out in 50 mM Hepes, pH=7.5, 10 mM MgCl2, 0.1% Bovine Serum Albumin, 0.01% Tween-20, 1 mM Dithiothreitol, 2.5% Dimethyl Sulfoxide. Stop and detection steps are combined using 50 mM Hepes, pH=7.5, 18 mM EDTA, 0.1% Bovine Serum Albumin, 0.01% Tween-20.

Cdk9/cyclinT1, sequence (P50750 whole entry): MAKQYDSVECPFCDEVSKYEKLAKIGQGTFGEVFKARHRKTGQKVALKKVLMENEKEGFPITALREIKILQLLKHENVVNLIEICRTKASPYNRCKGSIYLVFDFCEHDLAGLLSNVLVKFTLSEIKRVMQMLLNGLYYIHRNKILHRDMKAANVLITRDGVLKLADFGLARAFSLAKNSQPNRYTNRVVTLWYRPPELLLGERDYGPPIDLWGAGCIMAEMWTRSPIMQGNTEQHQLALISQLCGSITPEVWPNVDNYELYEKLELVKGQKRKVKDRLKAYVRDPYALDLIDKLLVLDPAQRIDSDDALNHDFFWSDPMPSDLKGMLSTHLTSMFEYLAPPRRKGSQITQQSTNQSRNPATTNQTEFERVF
Cdk9/cyclinT1, sequence (O60563 whole entry partner): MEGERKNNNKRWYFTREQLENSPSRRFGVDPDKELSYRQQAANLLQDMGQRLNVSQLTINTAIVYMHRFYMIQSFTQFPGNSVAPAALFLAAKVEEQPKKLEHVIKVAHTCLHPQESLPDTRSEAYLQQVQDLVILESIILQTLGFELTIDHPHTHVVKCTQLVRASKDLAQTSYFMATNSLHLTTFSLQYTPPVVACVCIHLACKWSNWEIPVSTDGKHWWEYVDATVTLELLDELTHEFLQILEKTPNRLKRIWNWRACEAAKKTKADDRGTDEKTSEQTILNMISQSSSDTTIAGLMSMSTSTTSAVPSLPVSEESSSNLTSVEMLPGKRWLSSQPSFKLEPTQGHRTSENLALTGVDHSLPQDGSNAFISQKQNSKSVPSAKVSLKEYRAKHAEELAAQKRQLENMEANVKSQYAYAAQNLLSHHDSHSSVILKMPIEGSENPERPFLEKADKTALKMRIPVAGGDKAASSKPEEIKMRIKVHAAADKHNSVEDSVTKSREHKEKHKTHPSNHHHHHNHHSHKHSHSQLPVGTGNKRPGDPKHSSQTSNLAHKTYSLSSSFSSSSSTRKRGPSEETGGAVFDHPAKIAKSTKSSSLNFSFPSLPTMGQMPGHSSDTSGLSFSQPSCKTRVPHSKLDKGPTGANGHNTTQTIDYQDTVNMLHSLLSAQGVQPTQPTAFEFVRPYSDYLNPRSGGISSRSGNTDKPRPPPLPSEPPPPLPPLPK

IC50 (Cdk9/cyclinT1)	Compound	inhibition of neointima formation (neointima formation)
8.61 nM	CO[C@H]1CCN([C@H]2CC[C@@H](Nc3cc(-c4cccc(NCC5(C#N)CCOCC5)n4)c(F)cn3)CC2)C1 [Compound 517]	–
25 nM	C[C@H](CO)N[C@H]1CC[C@@H](Nc2cc(-c3cncc(OCC4(C#N)CCOCC4)n3)c(F)cn2)CC1 [Compound 593]	–
< 1 nM	C[C@@H](O)CN[C@H]1CC[C@H](Nc2cc(-c3cccc(NCC4(C#N)CCOCC4)n3)c(Cl)cn2)CC1 [Compound 585]	–

More lines, now with the values behind:

Compound	IC50 (Cdk9/cyclinT1)	inhibition of neointima formation (neointima formation)
COc1ccc(CNc2nc(N(CCO)CCO)nc3c2ncn3C(C)C)cc1 [CVT-313]	–	greater than 80%
[2H][C@@](C)(COC)N[C@H]1CC[C@H](Nc2cc(-c3cccc(NCC4(C#N)CCOCC4)n3)c(Cl)cn2)CC1 [Compound 596]	< 1 nM	–
C[C@H](CO)N[C@H]1CC[C@H](Nc2cc(-c3cccc(NCC4(C#N)CCOCC4)n3)c(Cl)cn2)CC1 [Compound 584]	< 1 nM	–
